Common to all, as to format: biochemical
For assay [1], the target named is T1, human DYRK1A (Homo sapiens, UniProt Q13627).
T1 construct: Recombinant full-length DYRK1A (expressed in E. Coli cells with an N-terminal GST tag); GST (N); purchased SignalChem D09-10G; host or cells: E. coli
The assay can be described thus: DYRK1A enzyme assay (ADP-Glo). The following applies: ADP-Glo, ATP 60 μM; read-out: DYRK1A IC50. The procedure, abridged:
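ADP formed is quantified by luciferase luminescence (ADP-Glo) after a 60-minute, 25 °C reaction with 60 μM ATP and 20 μM DYRKtide peptide. Enzyme: 3 nM recombinant N-terminal GST DYRK1A, given 30 min compound preincubation in Tris pH 7.5/MgCl2/BSA/DTT buffer; % inhibition versus plate controls, four-parameter IC50.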

Assay [2] has as its target T2, human HIPK1 (Homo sapiens, UniProt Q86Z02).
T2 construct: Recombinant human HIPK1 (156-555); GST (N); purchased SignalChem H03-11G; host or cells: Sf9 insect cells
The assay can be described thus: HIPK1 enzyme assay (ADP-Glo). The following applies: ADP-Glo, ATP 5 μM; read-out: HIPK1 IC50. The procedure, abridged:
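Recombinant GST-tagged HIPK1 (156-555, Sf9), 4 nM, preincubated 30 min at 25° C with compound in Tris pH 7.5/MgCl2/BSA/DTT, then reacted 90 min with 0.05 mg/ml MBP and 5 μM ATP. ADP formed read by ADP-Glo luminescence; IC50 from four-parameter logistic fit of % inhibition versus Max/Min controls.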

The target in assay [3] is T3, human HIPK2 (Homo sapiens, UniProt Q9H2X6).
T3 construct: Recombinant human HIPK2 (1-640); GST (N); purchased SignalChem H04-11BG; host or cells: Sf9 insect cells
T3 sequence (Q9H2X6 1-640): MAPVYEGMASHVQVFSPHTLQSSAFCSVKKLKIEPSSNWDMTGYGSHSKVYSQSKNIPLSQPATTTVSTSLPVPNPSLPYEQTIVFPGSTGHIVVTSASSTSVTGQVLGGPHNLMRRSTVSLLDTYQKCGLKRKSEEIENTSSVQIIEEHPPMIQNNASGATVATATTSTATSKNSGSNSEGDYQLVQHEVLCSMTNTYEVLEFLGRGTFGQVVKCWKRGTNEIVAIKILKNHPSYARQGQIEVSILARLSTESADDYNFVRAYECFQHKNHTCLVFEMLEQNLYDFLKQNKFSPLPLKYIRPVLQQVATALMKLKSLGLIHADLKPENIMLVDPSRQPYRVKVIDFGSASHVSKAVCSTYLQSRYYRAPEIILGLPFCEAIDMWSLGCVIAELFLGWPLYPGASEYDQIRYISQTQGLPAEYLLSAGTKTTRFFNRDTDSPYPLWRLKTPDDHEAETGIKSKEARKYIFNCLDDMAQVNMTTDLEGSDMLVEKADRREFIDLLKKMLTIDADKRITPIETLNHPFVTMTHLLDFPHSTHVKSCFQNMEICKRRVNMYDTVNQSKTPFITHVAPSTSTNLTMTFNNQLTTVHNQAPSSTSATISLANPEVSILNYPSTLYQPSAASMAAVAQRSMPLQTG
The assay can be described thus: HIPK2 enzyme assay (ADP-Glo). The conditions noted are these: ADP-Glo, ATP 5 μM; read-out: HIPK2 IC50. The method, boiled down:
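GST-tagged HIPK2 (1-640) from Sf9, 1 nM, preincubated 30 min at 25° C with inhibitor in 40 mM Tris pH 7.5, 20 mM MgCl2. Reaction ran 90 min at 25° C with GST-MBP substrate at 0.05 mg/ml and 5 μM ATP. ADP-Glo luminescence; IC50 by four-parameter logistic fit.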

T2 sequence (Q86Z02 156-555): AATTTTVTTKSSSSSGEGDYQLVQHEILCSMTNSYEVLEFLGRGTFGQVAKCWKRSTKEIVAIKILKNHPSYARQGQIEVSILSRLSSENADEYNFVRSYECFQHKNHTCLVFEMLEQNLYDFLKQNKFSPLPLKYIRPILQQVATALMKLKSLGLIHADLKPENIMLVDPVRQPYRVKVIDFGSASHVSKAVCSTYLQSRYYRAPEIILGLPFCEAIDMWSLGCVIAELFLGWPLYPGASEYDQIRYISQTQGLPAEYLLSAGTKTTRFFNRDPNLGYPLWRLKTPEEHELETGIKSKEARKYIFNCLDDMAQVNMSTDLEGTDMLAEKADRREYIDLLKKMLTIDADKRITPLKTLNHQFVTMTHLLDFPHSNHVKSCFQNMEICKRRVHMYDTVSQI

Consider `O=C1NC(Nc2ccccc2)=N/C1=C\c1ccc2[nH]ncc2c1` [Example 55, (Z)-5-((1H-indazol-5-yl)methylene)-2-(phenylamino)-3,5-dihydro-4H-imidazol-4-one], for which the results for the IC50 in assay [1], in assay [2] and in assay [3] were under 0.1 µM, over 10 µM and 0.1 to 1 µM, respectively.
The matching figures for `CN(CCN1CCOCC1)C1=N/C(=C\c2ccc3c(c2)OCO3)C(=O)N1` [Example 20, (Z)-5-(benzo[d][1,3]dioxol-5-ylmethylene)-2-(methyl(2-morpholinoethyl)amino)-3,5-dihydro-4H-imidazol-4-one]: 0.1 to 1 µM, over 10 µM and over 10 µM.
The corresponding values for `O=C1NC(Nc2ccccc2)=N/C1=C\c1ccc2cn[nH]c2c1` [Example 54, (Z)-5-((1H-indazol-6-yl)methylene)-2-(phenylamino)-3,5-dihydro-4H-imidazol-4-one] are over 10 µM, over 10 µM and over 10 µM.
In the case of `CN(C1=N/C(=C\c2ccc3c(c2)OCO3)C(=O)N1)c1ccccc1` [Example 1, (Z)-5-(benzo[d][1,3]dioxol-5-ylmethylene)-2-(methyl(phenyl)amino)-3,5-dihydro-4H-imidazol-4-one], the figures for the IC50 in assay [1], in assay [2] and in assay [3] were 0.1 to 1 µM, over 10 µM and over 10 µM, respectively.
Turning to `O=C1NC(N(CC2CC2)c2ccccc2)=N/C1=C\c1ccc2c(c1)OCO2` [Example 10, (Z)-5-(benzo[d][1,3]dioxol-5-ylmethylene)-2-((cyclopropylmethyl)(phenyl)amino)-3,5-dihydro-4H-imidazol-4-one], the IC50 was 0.1 to 1 µM in assay [1], over 10 µM in assay [2] and over 10 µM in assay [3].
For the compound `Cn1cnc2ccc(/C=C3\N=C(Nc4ccc5ncsc5c4)NC3=O)cc21` [Example 75, (Z)-2-(benzo[d]thiazol-6-ylamino)-5-((1-methyl-1H-benzo[d]imidazol-6-yl)methylene)-3,5-dihydro-4H-imidazol-4-one], the IC50 in assay [1], in assay [2] and in assay [3] was under 0.1 µM throughout.
Regarding `NC(=O)CCN(C1=N/C(=C\c2ccc3c(c2)OCO3)C(=O)N1)c1ccccc1` [Example 36, (Z)-3-((4-(benzo[d][1,3]dioxol-5-ylmethylene)-5-oxo-4,5-dihydro-1H-imidazol-2-yl)(phenyl)amino)propanamide], the values for the IC50 in assay [1], in assay [2] and in assay [3] were 0.1 to 1 µM, over 10 µM and over 10 µM, respectively.
On to `CN(CC1CC1)C1=N/C(=C\c2ccc3c(c2)OCO3)C(=O)N1` [Example 11, (Z)-5-(benzo[d][1,3]dioxol-5-ylmethylene)-2-((cyclopropylmethyl)(methyl)amino)-3,5-dihydro-4H-imidazol-4-one], for which the IC50 is 0.1 to 1 µM in assay [1], over 10 µM in assay [2] and over 10 µM in assay [3].
In the case of `O=C1NC(Nc2ccc3ncsc3c2)=N/C1=C\c1ccc2cccnc2c1` [Example 60, (Z)-2-(benzo[d]thiazol-6-ylamino)-5-(quinolin-7-ylmethylene)-3,5-dihydro-4H-imidazol-4-one], the half-inhibitory concentration (IC50) in assay [1], in assay [2] and in assay [3] was over 10 µM in each case.
With `COc1ccccc1N(C)C1=N/C(=C\c2ccc3c(c2)OCO3)C(=O)N1` [Example 21, (Z)-5-(benzo[d][1,3]dioxol-5-ylmethylene)-2-((2-methoxyphenyl)(methyl)amino)-3,5-dihydro-4H-imidazol-4-one], the results for the IC50 in assay [1], in assay [2] and in assay [3] were 0.1 to 1 µM, over 10 µM and over 10 µM, respectively.
As to `O=C1/C(=C/c2ccc3ncsc3c2)N=C(N(Cc2ccccc2)c2ccccc2)N1Cc1ccccc1` [Example 42, (Z)-5-(benzo[d]thiazol-6-ylmethylene)-3-benzyl-2-(benzyl(phenyl)amino)-3,5-dihydro-4H-imidazol-4-one], the IC50 in assay [1], in assay [2] and in assay [3] was over 10 µM in each case.
For `CN(C1=N/C(=C\c2ccc3ncsc3c2)C(=O)N1)c1ccc([N+](=O)[O-])cc1` [Example 43, (Z)-5-(benzo[d]thiazol-6-ylmethylene)-2-(methyl(4-nitrophenyl)amino)-3,5-dihydro-4H-imidazol-4-one], the half-inhibitory concentration (IC50) in assay [1] was 1 to 10 µM; in assay [2], over 10 µM; in assay [3], over 10 µM.
On to `CN(C1=N/C(=C\c2ccc3ncsc3c2)C(=O)N1)c1ccccc1` [Example 7, (Z)-5-(benzo[d]thiazol-6-ylmethylene)-2-(methyl(phenyl)amino)-3,5-dihydro-4H-imidazol-4-one], for which the values for the half-inhibitory concentration (IC50) in assay [1], in assay [2] and in assay [3] were 0.1 to 1 µM, 1 to 10 µM and 1 to 10 µM, respectively.
With `O=C1NC(NC23CC4CC(CC(C4)C2)C3)=N/C1=C\c1ccc2scnc2c1` [Example 50, (Z)-2-(adamantan-1-ylamino)-5-(benzo[d]thiazol-5-ylmethylene)-3,5-dihydro-4H-imidazol-4-one], the figures for the IC50 in assay [1], in assay [2] and in assay [3] were 1 to 10 µM, over 10 µM and over 10 µM, respectively.
As to `CN(CCN1CCOCC1)C1=N/C(=C\c2ccc3ncsc3c2)C(=O)N1` [Example 32, (Z)-5-(benzo[d]thiazol-6-ylmethylene)-2-(methyl(2-morpholinoethyl)amino)-3,5-dihydro-4H-imidazol-4-one], the IC50 was 1 to 10 µM in assay [1], over 10 µM in assay [2] and over 10 µM in assay [3].
As to `Cn1ncc2cc(/C=C3\N=C(Nc4ccc5ncsc5c4)NC3=O)ccc21` [Example 78, (Z)-2-(benzo[d]thiazol-6-ylamino)-5-((1-methyl-1H-indazol-5-yl)methylene)-3,5-dihydro-4H-imidazol-4-one], the IC50 in assay [1], in assay [2] and in assay [3] was over 10 µM each time.
As for `O=C1NC(Nc2ccc3ncsc3c2)=NC1Cc1ccc2ncsc2c1` (stereo not drawn) [Example 102, 2-(benzo[d]thiazol-6-ylamino)-5-(benzo[d]thiazol-6-ylmethyl)-3,5-dihydro-4H-imidazol-4-one], the IC50 in assay [1] lay in the range of 1 to 10 µM; in assay [2] it was 0.1 to 1 µM; in assay [3], 0.1 to 1 µM.
Consider `CN(C1=N/C(=C\c2ccc3c(c2)OCO3)C(=O)N1)c1ccc2ncsc2c1` [Example 70, (Z)-5-(benzo[d][1,3]dioxol-5-ylmethylene)-2-(benzo[d]thiazol-6-yl(methyl)amino)-3,5-dihydro-4H-imidazol-4-one], for which the IC50 in assay [1], in assay [2] and in assay [3] was over 10 µM in each case.
As for `Cn1ncc2ccc(/C=C3\N=C(Nc4ccccc4)NC3=O)cc21` [Example 79, 5-((1-methyl-1H-indazol-6-yl)methylene)-2-(phenylamino)-3,5-dihydro-4H-imidazol-4-one], the IC50 in assay [1], in assay [2] and in assay [3] was over 10 µM in each case.
`Cn1ncc2cc(/C=C3\N=C(Nc4ccccc4)NC3=O)ccc21` [Example 77, (Z)-5-((1-methyl-1H-indazol-5-yl)methylene)-2-(phenylamino)-3,5-dihydro-4H-imidazol-4-one]: the IC50 in assay [1] is under 0.1 µM; in assay [2], over 10 µM; in assay [3] it was over 10 µM.
`O=C1NC(Nc2ccccc2)=N/C1=C\c1ccc2[nH]ccc2c1` [Example 51, (Z)-5-((1H-indol-5-yl)methylene)-2-(phenylamino)-3,5-dihydro-4H-imidazol-4-one]: the concentration for half-maximal inhibition (IC50) in assay [1], in assay [2] and in assay [3] was over 10 µM throughout.
Take `CN(C1=N/C(=C\c2ccc3c(c2)OCCO3)C(=O)N1)c1ccccc1` [Example 8, (Z)-5-((2,3-dihydrobenzo[b][1,4]dioxin-6-yl)methylene)-2-(methyl(phenyl)amino)-3,5-dihydro-4H-imidazol-4-one]: the IC50 in assay [1] was 1 to 10 µM; in assay [2], over 10 µM; in assay [3], over 10 µM.
On to `CN(Cc1ccccc1)C1=N/C(=C\c2ccc3ncsc3c2)C(=O)N1` [Example 28, (Z)-5-(benzo[d]thiazol-6-ylmethylene)-2-(benzyl(methyl)amino)-3,5-dihydro-4H-imidazol-4-one], for which the IC50 in assay [1] lay within 0.1 to 1 µM; in assay [2] it was 1 to 10 µM; in assay [3], 1 to 10 µM.
With `O=C1NC(Nc2ccc3c(c2)OCCO3)=N/C1=C\c1ccc2ncsc2c1` [Example 81, (Z)-5-(benzo[d]thiazol-6-ylmethylene)-2-((2,3-dihydrobenzo[b][1,4]dioxin-6-yl)amino)-3,5-dihydro-4H-imidazol-4-one], the IC50 in assay [1] is under 0.1 µM; in assay [2], 0.1 to 1 µM; in assay [3], under 0.1 µM.
`O=C(O)CCN(C1=N/C(=C\c2ccc3c(c2)OCO3)C(=O)N1)c1ccccc1` [Example 27, (Z)-3-((4-(benzo[d][1,3]dioxol-5-ylmethylene)-5-oxo-4,5-dihydro-1H-imidazol-2-yl)(phenyl)amino)propanoic acid]: the IC50 in assay [1], in assay [2] and in assay [3] was 1 to 10 µM each time.

Source of the values: US12643887B2, “Heterocyclic derivatives with cardiomyocyte proliferation activity for treatment of heart diseases” (Tongji University, priority 2019, dated 2026).
